From patent US20160221992A1, “DENDRITIC COMPOUNDS INCLUDING A CHELATING, FLUOROCHROME OR RECOGNITION AGENT, COMPOSITIONS INCLUDING SAME AND USES THEREOF” (UNIVERSITE DE STRASBOURG, priority 2013, published 2016)

Test system: murine melanoma (B16FO line)
Test: Quantitative study of tumoral fixation and biodistribution of the radiolabeled compound (ex-vivo gamma counting after IV injection)
Assay type: in vivo, C57B16 mice
Conditions: for % Elimination/Al / Ratio (g)/Al TU/kidneys / Ratio (g)/Al Tu/Liver / Ratio (g)/Al Tu/Lungs / Ratio (g)/Al Tu/blood / Tumor (g/Al %) / Total Elimination (%/Al): IV; for tumoral uptake compared with the ligand alone (AP045): APAG22-1: at two hours post-IV
Experimental: C57B16 mice bearing xenografts of murine melanoma (B16FO line) obtained by subcutaneous injection of 300 000 cells suspended in 100 μl of RPMI culture medium are injected subcutaneously in the back. The experiment is performed when the tumors are palpable. i.e. about 10 days […]. All the experiments (tumoral graft, injection and imaging) are carried out under isoflurane/oxygen (2.5%/2.5%) gas anesthesia.
Injection of 50 to 100 microliters of the radiolabeled solution, with a maximum activity of 20 MBQ, by direct intravenous injection (caudal vein). The activity of the empty syringe after injection+compress is also measured for calculating the actual activity injected (actual Ac injected=Ac normalized full syringe—normalized activity (empty syringe and compress). Normalization consists in calculating the theoretical activity at one and the same time chosen as reference (for example the time of injection). The measurements are performed on a regularly calibrated activity meter for medical use (Medisystem©).
Scintigraphic imaging is carried out using a dedicated small animal micro-5 imager SPECT-CT (BIOSCAN™). A planar scintigraphic image is obtained immediately after injection to verify absence of intracaudal stasis. If there is stasis, the mouse will be sacrificed at late times (24 or 48 h). Static scintigraphic images may be recorded at 2 h, 4 h, 24 h and 48 h (Imager micro-SPECT-CT BIOSCAN©).
This is done ex-vivo by gamma counting of the various samples, using a gamma well counter for medical use, regularly calibrated for the isotopes used (Tc-99m and In-111). The animals are euthanized according to the protocols allowed by the animal ethics committee at 2 h, 4 h, 24 h or 48 h. The main organs are removed (brain, spleen, kidneys, lungs, heart, alimentary canal, liver) as well as a fragment of skin, muscle, bone and a blood sample and the whole tumor. Each sample is weighed and its gamma activity is counted in a sample-changing well counter for dedicated medical use, calibrated for the radioelements used. The animal's carcass is also weighed after removing the tail; these samples are incinerated and their gamma activity is also measured. The gamma activity of the samples containing all the collected urine and the feces is also measured. The activity of each sample is normalized (relative to the time of injection), and the ratio of the activity of each sample is calculated relative to the total activity injected (=the sum of all of the activities measured except that of the tail), expressed in % per gram of tissue, for calculating the ratio of the activity present in the tumor relative to the main organs (liver, kidneys, lungs and blood). The percentage of the activity eliminated is calculated.
The mean values of all of the data for all of the mice whose data are exploitable are calculated, as well as after eliminating the animals with urinary excretion that is too quick (>50% at 2 h or 75% at 4 h, as well as the mice with tumors >2 g, as the existence of necrosis may distort the calculation of the ratio of fixation in the tumor).
The biodistribution data of the various dendrimer compounds coupled to the IFC01102 ligand (also called amine R) and to a chelating agent are compared with those of the ligand alone coupled to the DOTA chelating agent (compound AP045) and radiolabeled with the same radioelement. 8.5 Results with Compound APAG9-1 (Radiolabeled with Tc99m) The radiochemical purity is above 95%, according to the chromatographic profile obtained as described above (example 5). 12 animals were injected. The average activity injected is 3.5±2.4 MBq. 2 animals were euthanized at 2 h, 4 at 24 h and 48 h post-injection. Examples of planar image immediately post-injection and 2 hours post-injection are illustrated in FIG. 3.

[1] = 48 post-IV, Indium-111-radiolabeled, first series (all animals)
[2] = 48 post-IV, Indium-111-radiolabeled, second series (two mice with too quick urinary excretion eliminated)
[3] = 2 h post-iv, Indium-111-radiolabeled, first series (all animals)
[4] = 2 h post-iv, Indium-111-radiolabeled, second series (two mice with too quick urinary excretion eliminated)
[5] = 4 h post-IV, Indium-111-radiolabeled, first series (all animals)
[6] = 4 h post-IV, Indium-111-radiolabeled, second series (two mice with too quick urinary excretion eliminated)
[7] = 24 h post-IV, Indium-111-radiolabeled, first series (all animals)
[8] = 24 h post-IV, Indium-111-radiolabeled, second series (two mice with too quick urinary excretion eliminated)
[9] = 48 post-IV, Tc99m-radiolabeled, first series (all animals)
[10] = 48 post-IV, Tc99m-radiolabeled, second series (mice with too quick urinary secretion or too large tumor eliminated)
[11] = 2 h post-iv, Tc99m-radiolabeled, first series (all animals)
[12] = 2 h post-iv, Tc99m-radiolabeled, second series (mice with too quick urinary secretion or too large tumor eliminated)
[13] = 4 h post-IV, Tc99m-radiolabeled, first series (all animals)
[14] = 4 h post-IV, Tc99m-radiolabeled, second series (mice with too quick urinary secretion or too large tumor eliminated)
[15] = 24 h post-IV, Tc99m-radiolabeled, first series (all animals)
[16] = 24 h post-IV, Tc99m-radiolabeled, second series (mice with too quick urinary secretion or too large tumor eliminated)

SMILES: CCN(CC)CCNC(=O)c1cnc2cc(NC(=O)NCCOCCOCCNC(=O)CCOCCOCCOCCOCCNC(=O)CCN(CCC(=O)NCCOCCOCCOCCOCCC(=O)NCCOCCOCCNC(=O)Nc3ccc4nc(C(=O)NCCN(CC)CC)cnc4c3)Cc3cn(CCOCCOCCOCCOCCOCCOCCOCCNC(=O)CN4CCN(CC(=O)O)CCN(CC(=O)O)CCN(CC(=O)O)CC4)nn3)ccc2n1 [AP071]
- % Elimination/Al [1]: 8.5E+01%
- Ratio (g)/Al TU/kidneys [1]: 3.15E−01
- Ratio (g)/Al Tu/Liver [1]: 4.79E−01
- Ratio (g)/Al Tu/Lungs [1]: 2.85E+00
- Ratio (g)/Al Tu/blood [1]: 1.17E+01
- Tumor (g/Al %) [1]: 3.40E−01 g/Al %
- % Elimination/Al [2]: 8.5E+01%
- Ratio (g)/Al TU/kidneys [2]: 3.15E−01
- Ratio (g)/Al Tu/Liver [2]: 4.79E−01
- Ratio (g)/Al Tu/Lungs [2]: 2.86E+00
- Ratio (g)/Al Tu/blood [2]: 1.17E+01
- Tumor (g/Al %) [2]: 3.40E−01 g/Al %
- % Elimination/Al [3]: 6.0E+01%
- Ratio (g)/Al TU/kidneys [3]: 2.41E−02
- Ratio (g)/Al Tu/Liver [3]: 1.38E−01
- Ratio (g)/Al Tu/Lungs [3]: 2.43E−01
- Ratio (g)/Al Tu/blood [3]: 8.69E−01
- Tumor (g/Al %) [3]: 4.42E+00 g/Al %
- % Elimination/Al [4]: 5.1E+01%
- Ratio (g)/Al TU/kidneys [4]: 2.25E−01
- Ratio (g)/Al Tu/Liver [4]: 4.89E−01
- Ratio (g)/Al Tu/Lungs [4]: 9.54E−01
- Ratio (g)/Al Tu/blood [4]: 2.73E+00
- Tumor (g/Al %) [4]: 6.57E+00 g/Al %
- tumoral uptake (in words) (4 hours after IV injection, Indium-111): very high
- % Elimination/Al [5]: 7.3E+01%
- Ratio (g)/Al TU/kidneys [5]: 1.12E+00
- Ratio (g)/Al Tu/Liver [5]: 2.09E+00
- Ratio (g)/Al Tu/Lungs [5]: 6.20E+00
- Ratio (g)/Al Tu/blood [5]: 3.92E+01
- Tumor (g/Al %) [5]: 1.62E+01 g/Al %
- % Elimination/Al [6]: 6.9E+01%
- Ratio (g)/Al TU/kidneys [6]: 1.39E+00
- Ratio (g)/Al Tu/Liver [6]: 2.80E+00
- Ratio (g)/Al Tu/Lungs [6]: 8.36E+00
- Ratio (g)/Al Tu/blood [6]: 7.20E+01
- Tumor (g/Al %) [6]: 2.25E+01 g/Al %
- % Elimination/Al [7]: 8.5E+01%
- Ratio (g)/Al TU/kidneys [7]: 4.61E−01
- Ratio (g)/Al Tu/Liver [7]: 6.98E−01
- Ratio (g)/Al Tu/Lungs [7]: 2.88E+00
- Ratio (g)/Al Tu/blood [7]: 9.46E+00
- Tumor (g/Al %) [7]: 3.07E+00 g/Al %
- % Elimination/Al [8]: 8.5E+01%
- Ratio (g)/Al TU/kidneys [8]: 4.61E−01
- Ratio (g)/Al Tu/Liver [8]: 6.98E−01
- Ratio (g)/Al Tu/Lungs [8]: 2.88E+00
- Ratio (g)/Al Tu/blood [8]: 9.46E+00
- Tumor (g/Al %) [8]: 3.07E+00 g/Al %
- tumoral uptake compared with the ligand alone (AP045): far higher

SMILES: CCN(CC)CCNC(=O)c1cnc2cc(NC(=O)NCCOCCOCCNC(=O)CCOCCOCCOCCOCCOCCOCCOCCOCCOc3c(OCCOCCOCCOCCOC)cc(C(=O)NCCCNC(=O)C(CCCNC(=O)c4cccc(O)c4O)(CCCNC(=O)c4cccc(O)c4O)CCCNC(=O)c4cccc(O)c4O)cc3OCCOCCOCCOCCOC)ccc2n1 [APAG22-1]
- Ratio (g)/Al TU/kidneys [9]: 1.74E−02
- Ratio (g)/Al Tu/Liver [9]: 1.17E−01
- Ratio (g)/Al Tu/Lungs [9]: 2.22E+00
- Ratio (g)/Al Tu/blood [9]: 3.80E+00
- Total Elimination (%/Al) [9]: 7.36E+01 %/Al
- Tumor (g/Al %) [9]: 6.32E−01 g/Al %
- Ratio (g)/Al TU/kidneys [10]: 1.74E−02
- Ratio (g)/Al Tu/Liver [10]: 1.17E−01
- Ratio (g)/Al Tu/Lungs [10]: 2.22E+00
- Ratio (g)/Al Tu/blood [10]: 3.80E+00
- Total Elimination (%/Al) [10]: 7.32E+01 %/Al
- Tumor (g/Al %) [10]: 6.68E−01 g/Al %
- Ratio (g)/Al TU/kidneys [11]: 3.36E−01
- Ratio (g)/Al Tu/Liver [11]: 3.06E−01
- Ratio (g)/Al Tu/Lungs [11]: 5.44E−01
- Ratio (g)/Al Tu/blood [11]: 3.69E−01
- Total Elimination (%/Al) [11]: 2.59E+01 %/Al
- Tumor (g/Al %) [11]: 2.98E+00 g/Al %
- Ratio (g)/Al TU/kidneys [12]: 4.75E−01
- Ratio (g)/Al Tu/Liver [12]: 3.15E−01
- Ratio (g)/Al Tu/Lungs [12]: 4.17E−01
- Ratio (g)/Al Tu/blood [12]: 1.10E+00
- Total Elimination (%/Al) [12]: 1.46E+01 %/Al
- Tumor (g/Al %) [12]: 3.50E+00 g/Al %
- Ratio (g)/Al TU/kidneys [13]: 1.09E−01
- Ratio (g)/Al Tu/Liver [13]: 1.90E−01
- Ratio (g)/Al Tu/Lungs [13]: 9.45E−01
- Ratio (g)/Al Tu/blood [13]: 4.62E−01
- Total Elimination (%/Al) [13]: 3.58E+01 %/Al
- Tumor (g/Al %) [13]: 2.14E+00 g/Al %
- Ratio (g)/Al TU/kidneys [14]: 1.09E−01
- Ratio (g)/Al Tu/Liver [14]: 1.90E−01
- Ratio (g)/Al Tu/Lungs [14]: 9.45E−01
- Ratio (g)/Al Tu/blood [14]: 4.62E−01
- Total Elimination (%/Al) [14]: 3.58E+01 %/Al
- Tumor (g/Al %) [14]: 2.14E+00 g/Al %
- Ratio (g)/Al TU/kidneys [15]: 2.11E−02
- Ratio (g)/Al Tu/Liver [15]: 1.20E−01
- Ratio (g)/Al Tu/Lungs [15]: 2.26E+00
- Ratio (g)/Al Tu/blood [15]: 9.00E+00
- Total Elimination (%/Al) [15]: 6.45E+01 %/Al
- Tumor (g/Al %) [15]: 1.19E+00 g/Al %
- Ratio (g)/Al TU/kidneys [16]: 2.11E−02
- Ratio (g)/Al Tu/Liver [16]: 1.20E−01
- Ratio (g)/Al Tu/Lungs [16]: 2.26E+00
- Ratio (g)/Al Tu/blood [16]: 9.00E+00
- Total Elimination (%/Al) [16]: 5.45E+01 %/Al
- Tumor (g/Al %) [16]: 1.19E+00 g/Al %
- tumoral uptake compared with the ligand alone (AP045): higher
- time at which the maximum tumoral uptake is observed (after IV injection of the radiolabeled compound): 2 h
- elimination compared with the ligand alone (AP045) (at 24 hours and 48 hours): far greater
- Tumor to Liver ratio compared with the ligand alone (AP045) (mouse, in vivo): much higher
